Our source for the zone of inhibition values is patent US20120109286A1, “ANTIMICROBIAL COATINGS” (priority 2009, published 2012).

Holding throughout (settings): 24 h at 37° C.
For one test, the system named is P. aeruginosa. As to the kind of experiment: Zone of inhibition around monomer pellets. The class given is cell-based, Pseudomonas aeruginosa.
The next test deals with M. luteus. The experiment in a line: Zone of inhibition around monomer pellets or powder. In kind it is cell-based, Micrococcus luteus. From the text: (§1) ZSB powder was used to show antimicrobial efficacy.
The subject of the next test is S. aureus. The test is described as above. In kind it is cell-based, Staphylococcus aureus.
Text: as §1

On to `O=C1C=CC(=O)[N]1[Ag]([P+](c1ccccc1)(c1ccccc1)c1ccccc1)[P+](c1ccccc1)(c1ccccc1)c1ccccc1` [PSSM, Phosphine Stabilised Silver Maleimide], for which the zone of inhibition result in the test on P. aeruginosa was “more blurred inhibition zones”; in the test with M. luteus, “sharp ring of inhibition”; in the test on S. aureus, “sharp ring of inhibition”.
